Measured values taken from US11352358B2, “FXR agonist” (XUANZHU BIOPHARMACEUTICAL CO., LTD., priority 2017, dated 2022).

Key:
[1] = Liver microsome metabolism stability, rat liver microsome; format: in vitro ADME, SD rat; details: 0.5 mg protein/mL, test sample 1 μM, β-NADPH
Protocol: (§1) Test samples: the homemade compounds 1, 2, 4 and 5 of the present invention (for their chemical names and preparation methods, see the preparation example for each compound).
(§2) a mixed liver microsomes of SD rat and human both purchased from XenoTech, with batch Nos.: 1410271 (SD rat) and 1410013 (human) respectively, wherein the microsomal protein concentrations both were 20 mg mL^−1;
(§3) experimental promoter β-NADPH purchased from Roche (batch No.: 524F0231); and a phosphate buffer solution (pH 7.4) made in the lab.
(§4) An appropriate amount of the test sample powder was weighed accurately, and dissolved in an appropriate amount of dimethyl sulfoxide (DMSO) to a concentration of 1 mM; and the solution was then diluted by 20 times with methanol to yield a 50 μM working solution.
(§5) (1) According to the proportions in table 3 “Composition of the incubation system for liver microsome metabolism stability experiment” above, for each compound, 6 mL of PBS (100 mM), 0.6 mL of MgCl2 solution (20 mM) and 3.66 mL of H2O were made into a mixed solution 1 for the incubation system (not containing the microsomes, the test sample and β-NADPH).
(§6) (2) Liver microsomes (20 mg protein/mL) were taken from a refrigerator (−80° C.), and were placed on a thermostatic water bath oscillator (37° C.) and pre-incubated for 3 mins.
(§7) (3) For each compound, 1.88 mL of the mixed solution 1 for the incubation system was added with 55 μL of microsomes to obtain a mixed solution 2 for the incubation system (not containing the test sample and β-NADPH).
(§8) (4) Sample group (containing the microsomes and D-NADPH): 616 μL of mixed solution 2 for the incubation system was added with 14 μL of the test sample working solution (with a concentration of 50 μM), and with 70 μL of R-NADPH working solution (10 mM). The resulted solution was well mixed, and the resulted solution was then duplicated. The time points of sampling were at 0 min, 5th min, 10th min, 20th min, 30th min and 60th min.
(§9) (5) Control group (containing the microsomes, and water instead of D-NADPH): 264 μL of mixed solution 2 for the incubation system was added with 6 μL of the test sample working solution (50 μM), and with 30 μL of water. The resulted solution was well mixed, and the resulted solution was then duplicated. The time points of sampling were at 0 min and 60th min.
(§10) (6) 50 μL of sample was taken from an incubating sample tube at each predetermined time point, added to a terminating sample tube (containing 300 μL of cold terminator), and vortexed; and the reaction was terminated.
(§11) (7) after 10 mins of vortexing, the solution was centrifuged for 5 mins (12,000 rpm).
(§12) (8) 100 μL of supernatant was taken and added with 100 μL of water, and the mixture solution was thoroughly vortexed; and the solution was then analyzed by LC-MS/MS.
(§13) Percentages of residual contents were calculated according to the following formula.

[2] = tested on: BSEP mRNA in HepG2 cells; assay: Relative expression of BSEP mRNA in HepG2 cells (qPCR), Experimental Example 1; format: cell-based, human; details: 24 hrs, expression under 3 μM of PX-104 as 100%
Protocol: compounds of the present invention (for their chemical names and preparation methods, see the preparation example of each compound); compound PX-104 and compound 30-70 (for their structures, see the background of the invention, and for their preparation methods, see patent applications WO2011020615A1 and WO2012087519A1).
(§14) Cells were digested with pancreatin and collected, and the concentration of the cells was determined; according to the counting result, the cells were resuspended to a density of 7.5×10^5 cells/mL; 2 mL of the cell suspension was inoculated in each well of a 6-well cell culture plate; and the culture plate was placed in an incubator and cultured under the conditions of 37° C. and 5% CO2 for 24 hrs.
The to-be-tested compounds were diluted to 0.3 mM and 3 mM with DMSO; and 5 μL of each stock solution diluted in the previous step was added to 5 mL of medium individually. The concentrations of the obtained working solutions were 0.3 μM and 3 μM respectively. In the control group, medium was prepared by using equivoluminal DMSO instead of the stock solutions; the cell culture plate was taken out from the incubator; the medium was removed from the cell culture plate, and the working solutions and the control medium were added correspondingly; and the culture plate was then put back into the incubator and cultured under the conditions of 37° C. and 5% CO2 for 24 hrs.
after treatment for 24 hrs, the cell culture plate was taken out, and the medium was removed from the plate; the cells were rinsed three times with pre-cooled (4° C.) PBS; and 200 μL of pancreatin (preheated to 37° C.) was added to each well, and the plate was then gently shaken such that the pancreatin could evenly cover the plate bottom. The culture plate was then placed back into the incubator and incubated until the cells were separated from the plate bottom. 1 mL of medium was added to terminate digestion. The solution was gently pipetted and blown for several times with a pipettor, all the substances in each well were pipetted into a 1.5 mL Rnase-free centrifuge tube and centrifuged at 200×g for 5 mins; supernatants were removed to collect cell samples.
Cell lysis: Fresh RNA lysis buffer was prepared (wherein 10 μL of 2-mercaptoethanol was added to 1 mL of lysis buffer); 600 μL of lysis buffer was added to each cell sample; the cells were lysed completely by 1 to 2 mins of vigorous vortexing; the cell lysates were centrifuged at 12,000×g for 5 mins; and the supernatants were transferred to 1.5 mL Rnase-free centrifuge tubes.
Extraction and purification of RNA: An equal amount of 70% ethanol was added to each cell lysate; the centrifuge tubes were then shaken vigorously, and the buffer was mixed sufficiently, so that the particulate precipitates that might be formed after the addition of ethanol were dispersed as even as possible; and adsorption columns were put into collecting tubes, and the mixtures were transferred to the adsorption columns. 700 μL was transferred at most each time; and the solutions were centrifuged at 12,000×g under room temperature for 15 secs. The solutions in the collecting tubes were discarded, and the adsorption columns were put into the collecting tubes once again; and all the remaining mixtures were then transferred into the adsorption columns. 700 μL of eluent I was added to the adsorption column; and the solutions were centrifuged at 12,000×g under room temperature for 15 secs. The adsorption columns were put into new collecting tubes; 500 μL of eluent II was added to the adsorption column; and the solutions were centrifuged at 12,000×g under room temperature for 15 secs. […]

[3] = Liver microsome metabolism stability, human liver microsome; format: in vitro ADME; details: 0.5 mg protein/mL, test sample 1 μM, β-NADPH
Protocol: as §1, §2, §3, §4, §5, §6, §7, §8, §9, §10, §11, §12, §13

[4] = tested on: CYP7A1 mRNA in HepG2 cells; assay: Relative expression of CYP7A1 mRNA in HepG2 cells, IC50 (Experimental Example 3); format: cell-based; details: Homo sapiens, 24 hrs
Protocol: (§15) compounds of the present invention (for their chemical names and preparation methods, see the preparation example for each compound).
(§16) HepG2 cell: human liver cancer cell;
CYP7A1: cholesterol 7-alpha hydroxylase;
(§17) Control: compound 1-1B with a structure shown as follows, prepared according to a prior art method (for detailed information, see patent application WO2012087519A1).
as §14
(§18) The compounds were diluted to 3000, 1000, 200, 8, 1.6, 0.32, 0.0128, 0.00256 and 0.000512 μM with DMSO. Compound solutions of different concentrations obtained in the previous step were further diluted by 1,000 times with media to obtain working solutions, and a medium containing 0.1% of DMSO was adopted as a control group. The cell culture plate was taken out from the incubator, the medium was removed, and the working solutions and the control medium were added. The culture plate was placed back into the incubator and cultured under the conditions of 37° C. and 5% CO2 for 24 hrs. […]

[5] = tested on: SHP mRNA in AML12 cells; assay: Relative expression of SHP mRNA in AML12 cells, EC50 (Experimental Example 4); format: cell-based; details: Mus musculus, 24 hrs
Protocol: as §15
AML12 cells: mouse liver cells.
as §17
as §14, with “of 7.5×10^4” for “of 7.5×10^5”, “cells/mL; 1” for “cells/mL; 2”, “a 12-well” for “a 6-well”
The compound were diluted to 1000, 200, 8, 1.6, 0.32, 0.128, 0.0256 and 0.00512 μM with DMSO. Compound solutions of different concentrations obtained in the previous step were further diluted by 1000 times with media to obtain working solutions, and a medium containing 0.1% of DMSO was adopted as a control group. The cell culture plate was taken out from the incubator, the medium was removed, and the working solutions and the control medium were added. The culture plate was placed back into the incubator and cultured under the conditions of 37° C. and 5% CO2 for 24 hrs.
after treatment for 24 hrs, the cell culture plate was taken out from the incubator, and the medium was removed from the plate; the cells were rinsed three times with pre-cooled (4° C.) PBS (phosphate buffer solution); and 200 μL of pancreatin (preheated to 37° C.) was added to each well, and the plate was then gently shaken such that the pancreatin could evenly cover the plate bottom. The culture plate was then placed back into the incubator and incubated until the cells were separated from the plate bottom. 1 mL of medium was added to terminate digestion. […]

[6] = tested on: BSEP mRNA in HepG2 cells; assay: Relative expression of BSEP mRNA in HepG2 cells, EC50 (Experimental Example 3); format: cell-based; details: Homo sapiens, 24 hrs
Protocol: as §15, §16
BSEP: bile salt export pump;
as §17, §14, §18

[7] = tested on: SHP mRNA in HepG2 cells; assay: Relative expression of SHP mRNA in HepG2 cells, EC50 (Experimental Example 3); format: cell-based; details: Homo sapiens, 24 hrs
Protocol: as §15, §16
SHP: small heterodimer partner;
as §17, §14, §18

| Residual content (%) after 60 minutes of incubation [1] | Residual content (%) after 60 minutes of incubation [3] | Compound | relative expression of BSEP mRNA in HepG2 cells ([2]; Table 2, 0.3 μM) | relative expression of BSEP mRNA in HepG2 cells ([2]; Table 2, 3 μM) | relative expression of BSEP mRNA in HepG2 cells ([2]; Table 1, 0.3 μM) | relative expression of BSEP mRNA in HepG2 cells ([2]; Table 1, 3 μM) | IC50 [4] | EC50 [5] | EC50 [6] | EC50 [7] |
| --- | --- | --- | --- | --- | --- | --- | --- | --- | --- | --- |
| 53% | 49% | COc1cc(C(=O)O)cc2sc(N3C[C@H]4C[C@@H]3C[C@@H]4OCc3c(-c4c(Cl)cccc4Cl)noc3C3CC3)nc12 (racemic) [Compound 1, 2-((RS, 4RS, 5SR)-5-((5-cyclopropyl-3-(2,6-dichlorophenyl)isoxazol-4-yl)methoxy)-2-azabicyclo[2.2.1]heptan-2-yl)-4-methoxybenzo[d]thiazole-6-carboxylic acid] | 121% | 102% |  |  |  |  |  |  |
| 94% | 55% | O=C(O)c1ccc2nc(N3C[C@H]4C[C@@H]3C[C@@H]4OCc3c(-c4c(Cl)cccc4Cl)noc3C3CC3)sc2c1 (racemic) [Compound 2, 2-((1RS, 4RS, 5SR)-5-((5-cyclopropyl-3-(2,6-dichlorophenyl)isoxazol-4-yl)methoxy)-2-azabicyclo[2.2.1]heptan-2-yl)benzo[d]thiazole-6-carboxylic acid] |  |  | 145% | 179% |  |  |  |  |
| 69% | 54% | O=C(O)c1cc(F)c2nc(N3C[C@H]4C[C@@H]3C[C@@H]4OCc3c(-c4c(Cl)cccc4Cl)noc3C3CC3)sc2c1 (racemic) [Compound 4, 2-((1RS, 4RS, 5SR)-5-((5-cyclopropyl-3-(2,6-dichlorophenyl)isoxazol-4-yl)methoxy)-2-azabicyclo[2.2.1]heptan-2-yl)-4-fluorobenzo[d]thiazole-6-carboxylic acid] | 97% | 96% |  |  |  |  |  |  |
| 49% | 31% | Cc1cc(C(=O)O)cc2sc(N3C[C@H]4C[C@@H]3C[C@@H]4OCc3c(-c4c(Cl)cccc4Cl)noc3C3CC3)nc12 (racemic) [Compound 5, 2-((1RS, 4RS, 5SR)-5-((5-cyclopropyl-3-(2,6-dichlorophenyl)isoxazol-4-yl)methoxy)-2-azabicyclo[2.2.1]heptan-2-yl)-4-methylbenzo[d]thiazole-6-carboxylic acid] | 103% | 123% |  |  |  |  |  |  |
|  |  | O=C(O)c1cc(F)c2nc(N3[C@@H]4CC[C@H]3C[C@@H](OCc3c(-c5ccccc5OC(F)(F)F)noc3C3CC3)C4)sc2c1 [Compound 1-1B, reference compound] |  |  |  |  | 0.1 nM | 1.51 nM | 0.75 nM | 0.26 nM |
|  |  | O=C(O)c1ccc(C2CC2c2ccc(OCc3c(-c4c(Cl)cccc4Cl)noc3C3CC3)cc2Cl)cc1 (stereo not drawn) [PX-104, reference compound] | 45% | 100% | 60% | 100% |  |  |  |  |

| Compound | Residual content (%) after 60 minutes of incubation [1] | Residual content (%) after 60 minutes of incubation [3] | relative expression of BSEP mRNA in HepG2 cells ([2]; Table 2, 0.3 μM) | relative expression of BSEP mRNA in HepG2 cells ([2]; Table 2, 3 μM) | relative expression of BSEP mRNA in HepG2 cells ([2]; Table 1, 0.3 μM) | relative expression of BSEP mRNA in HepG2 cells ([2]; Table 1, 3 μM) | IC50 [4] | EC50 [5] | EC50 [6] | EC50 [7] |
| --- | --- | --- | --- | --- | --- | --- | --- | --- | --- | --- |
| O=C(O)c1ccc2nc(N3[C@@H]4CC[C@H]3C[C@@H](OCc3c(-c5c(Cl)cccc5Cl)noc3C3CC3)C4)sc2c1 [Compound 30-70, reference compound] |  | 20% |  |  | 105% | 146% |  |  |  |  |
